Reference: patent US12404279B2, “Deubiquitinase inhibitors and methods of use thereof” (Molecure S.A., priority 2021, dated 2025)
pIC50: −log10 of the molar value. Structures can show the parent of a compound that is named as a salt.

Molecular target: full-length USP7 (Homo sapiens (Human), UniProt Q93009)
Test: Enzymatic assay to determine IC50 of USP7 inhibitors (Ubiquitin-Rhodamine 110 cleavage)
Type: biochemical
Settings: 0.5 nM USP7, 0.5 μM Ubiquitin-Rhodamine 110, 45 min at 37° C.
Method in brief: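 Full-length USP7 (0.5 nM) in 50 mM HEPES pH 7.5, 150 mM NaCl, 1 mM DTT, 1 mg/ml BSA, 0.05% Tween20 was preincubated 15 min with DTT at room temperature before compound addition.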

full-length USP7, sequence (Q93009 whole entry): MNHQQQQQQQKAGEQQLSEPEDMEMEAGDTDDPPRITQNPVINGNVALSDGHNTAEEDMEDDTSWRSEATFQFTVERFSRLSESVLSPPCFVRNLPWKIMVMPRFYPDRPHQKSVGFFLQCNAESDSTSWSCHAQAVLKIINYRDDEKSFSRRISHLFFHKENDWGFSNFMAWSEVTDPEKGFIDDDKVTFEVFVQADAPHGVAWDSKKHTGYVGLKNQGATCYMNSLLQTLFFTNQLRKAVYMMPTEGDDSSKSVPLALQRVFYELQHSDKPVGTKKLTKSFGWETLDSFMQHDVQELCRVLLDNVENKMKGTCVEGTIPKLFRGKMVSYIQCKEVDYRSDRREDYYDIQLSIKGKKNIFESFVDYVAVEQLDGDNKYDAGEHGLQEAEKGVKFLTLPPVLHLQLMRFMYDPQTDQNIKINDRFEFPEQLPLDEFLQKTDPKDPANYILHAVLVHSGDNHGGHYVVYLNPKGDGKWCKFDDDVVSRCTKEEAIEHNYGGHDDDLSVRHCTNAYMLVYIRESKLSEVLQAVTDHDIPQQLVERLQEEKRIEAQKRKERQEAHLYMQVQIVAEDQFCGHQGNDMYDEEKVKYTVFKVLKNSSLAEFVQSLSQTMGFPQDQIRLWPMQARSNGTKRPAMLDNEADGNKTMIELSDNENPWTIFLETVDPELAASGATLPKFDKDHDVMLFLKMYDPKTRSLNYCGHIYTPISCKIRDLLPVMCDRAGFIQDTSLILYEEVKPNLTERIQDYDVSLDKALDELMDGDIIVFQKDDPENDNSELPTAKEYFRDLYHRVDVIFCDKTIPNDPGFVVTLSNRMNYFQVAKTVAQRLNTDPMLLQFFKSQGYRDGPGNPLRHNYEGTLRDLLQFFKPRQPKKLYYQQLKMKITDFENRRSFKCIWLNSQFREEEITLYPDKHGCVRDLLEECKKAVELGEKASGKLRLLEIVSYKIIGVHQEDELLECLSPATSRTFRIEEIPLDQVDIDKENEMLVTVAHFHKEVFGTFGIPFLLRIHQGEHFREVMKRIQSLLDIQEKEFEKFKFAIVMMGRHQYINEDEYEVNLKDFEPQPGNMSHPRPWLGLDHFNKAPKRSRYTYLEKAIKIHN

Molecule | pIC50
Cc1nc(C(F)(F)F)cc(-c2ccnc3cc(CN4C(=O)C5C(C4=O)C5(C)C)sc23)c1NC(=O)c1cccnc1 (stereo not drawn) [Example 63, N-(4-(2-((6,6-dimethyl-2,4-dioxo-3-azabicyclo[3.1.0]hexan-3-yl)methyl)thieno[3,2-b]pyridin-7-yl)-2-methyl-6-(trifluoromethyl)pyridin-3-yl)nicotinamide 2,2,2-trifluoroacetate] | < 5.00
3-((7-(3-(3,3-difluoroazetidine-1-carbonyl)-4,6-dimethylpyridin-2-yl)thieno[3,2-b]pyridin-2-yl)methyl)-6,6-dimethyl-3-azabicyclo[3.1.0]hexane-2,4-dione hydrochloride [Example 85] | 5.00 to 6.00
Cc1c([N+](=O)[O-])cc(-c2ccnc3cc(CN4C(=O)C5C(C4=O)C5(C)C)sc23)n1C[C@@H]1CNCCO1 (stereo partly drawn) [Example 154, 6,6-dimethyl-3-((7-(5-methyl-1-(((S)-morpholin-2-yl)methyl)-4-nitro-1H-pyrrol-2-yl)thieno[3,2-b]pyridin-2-yl)methyl)-3-azabicyclo[3.1.0]hexane-2,4-dione hydrochloride] | > 6.30
Cc1cc(C(F)(F)F)nc(-c2ccnc3cc(CN4C(=O)C5C(C4=O)C5(C)C)sc23)c1C(=O)N1CCNCC1 (stereo not drawn) [Example 76, 6,6-dimethyl-3-((7-(4-methyl-3-(piperazine-1-carbonyl)-6-(trifluoromethyl)pyridin-2-yl)thieno[3,2-b]pyridin-2-yl)methyl)-3-azabicyclo[3.1.0]hexane-2,4-dione dihydrochloride] | > 6.30
Cc1nc(C(F)(F)F)cc(-c2ccnc3cc(CN4C(=O)C5C(C4=O)C5(C)C)sc23)c1NC(=O)C1CC(F)(F)C1 (stereo not drawn) [Example 86, N-(4-(2-((6,6-dimethyl-2,4-dioxo-3-azabicyclo[3.1.0]hexan-3-yl)methyl)thieno[3,2-b]pyridin-7-yl)-2-methyl-6-(trifluoromethyl)pyridin-3-yl)-3,3-difluorocyclobutane-1-carboxamide hydrochloride] | < 5.00
Cc1cc(C(F)(F)F)nc(-c2ccnc3cc(CN4C(=O)C5C(C4=O)C5(C)C)sc23)c1NC1CCNCC1 (stereo not drawn) [Example 128, 6,6-dimethyl-3-((7-(4-methyl-3-(piperidin-4-ylamino)-6-(trifluoromethyl)pyridin-2-yl)thieno[3,2-b]pyridin-2-yl)methyl)-3-azabicyclo[3.1.0]hexane-2,4-dione tetrahydrochloride] | > 6.30
Cc1cc(C(F)(F)F)nc(-c2ccnc3cc(CN4C(=O)C5C(C4=O)C5(C)C)sc23)c1C(=O)N1CCC2CNCC21 (racemic) [Example 72, 6,6-dimethyl-3-((7-(4-methyl-3-(octahydropyrrolo[3,4-b]pyrrole-1-carbonyl)-6-(trifluoromethyl)pyridin-2-yl)thieno[3,2-b]pyridin-2-yl)methyl)-3-azabicyclo[3.1.0]hexane-2,4-dione dihydrochloride] | > 6.30
Cc1cc(C(F)(F)F)nc(-c2ccnc3cc(CN4C(=O)C5C(C4=O)C5(C)C)sc23)c1C(=O)N1CC[C@H](NC(=O)[C@@H](N)C(C)C)C1 (stereo partly drawn) [Example 109, (2S)-2-amino-N-((3S)-1-(2-(2-((6,6-dimethyl-2,4-dioxo-3-azabicyclo[3.1.0]hexan-3-yl)methyl)thieno[3,2-b]pyridin-7-yl)-4-methyl-6-(trifluoromethyl)nicotinoyl)pyrrolidin-3-yl)-3-methylbutanamide dihydrochloride] | > 6.30

Other lines, results leading:

pIC50 | Molecule
5.00 to 6.00 | Cc1cc(C#N)nc(-c2ccnc3cc(CN4C(=O)C5C(C4=O)C5(C)C)sc23)c1C(=O)NC1CNC1 (stereo not drawn) [Example 56, N-(azetidin-3-yl)-6-cyano-2-(2-((6,6-dimethyl-2,4-dioxo-3-azabicyclo[3.1.0]hexan-3-yl)methyl)thieno[3,2-b]pyridin-7-yl)-4-methylnicotinamide hydrochloride]
> 6.30 | Cc1nc(C#N)cc(-c2ccnc3cc(CN4C(=O)C5C(C4=O)C5(C)C)sc23)c1NC(=O)C1CNC1 (stereo not drawn) [Example 30, N-(6-cyano-4-(2-((6,6-dimethyl-2,4-dioxo-3-azabicyclo[3.1.0]hexan-3-yl)methyl)thieno[3,2-b]pyridin-7-yl)-2-methylpyridin-3-yl)azetidine-3-carboxamide 2,2,2-trifluoroacetate]
> 6.30 | Cc1cc(C#N)nc(-c2ccnc3cc(CN4C(=O)C5C(C4=O)C5(C)C)sc23)c1C(=O)N1CCC(F)(F)C1 (stereo not drawn) [Example 59, 5-(3,3-difluoropyrrolidine-1-carbonyl)-6-(2-((6,6-dimethyl-2,4-dioxo-3-azabicyclo[3.1.0]hexan-3-yl)methyl)thieno[3,2-b]pyridin-7-yl)-4-methylpicolinonitrile hydrochloride]
6.00 to 6.30 | Cc1cc(Cl)nc(-c2ccnc3cc(CN4C(=O)C5C(C4=O)C5(C)C)sc23)c1N1CCCNC1=O (stereo not drawn) [Example 121, 3-((7-(6-chloro-4-methyl-3-(2-oxotetrahydropyrimidin-1(2H)-yl)pyridin-2-yl)thieno[3,2-b]pyridin-2-yl)methyl)-6,6-dimethyl-3-azabicyclo[3.1.0]hexane-2,4-dione 2,2,2-trifluoroacetate]
> 6.30 | Cc1cc(C#N)nc(-c2ccnc3cc(CN4C(=O)C5C(C4=O)C5(C)C)sc23)c1C(=O)N1CCNCC1 (stereo not drawn) [Example 55, 6-(2-((6,6-dimethyl-2,4-dioxo-3-azabicyclo[3.1.0]hexan-3-yl)methyl)thieno[3,2-b]pyridin-7-yl)-4-methyl-5-(piperazine-1-carbonyl)picolinonitrile hydrochloride]
5.00 to 6.00 | Cc1cc(Cl)cc(-c2ccnc3sccc23)c1O[C@H]1CCCNC1 [Example 31, (S)-4-(5-chloro-3-methyl-2-(piperidin-3-yloxy)phenyl)thieno[2,3-b]pyridine 2,2,2-trifluoroacetate]
> 6.30 | Cc1cc(C(F)(F)F)nc(-c2ccnc3cc(CN4C(=O)C5C(C4=O)C5(C)C)sc23)c1C(=O)N1CCC(CN)C1 (racemic) [Example 139, 3-((7-(3-(3-(aminomethyl)pyrrolidine-1-carbonyl)-4-methyl-6-(trifluoromethyl)pyridin-2-yl)thieno[3,2-b]pyridin-2-yl)methyl)-6,6-dimethyl-3-azabicyclo[3.1.0]hexane-2,4-dione trihydrochloride]
6.00 to 6.30 | Cc1cc(C(F)(F)F)nc(-c2ccnc3cc(CN4C(=O)C5C(C4=O)C5(C)C)sc23)c1C(=O)N1C[C@@H]2CCN[C@@H]2C1 (stereo partly drawn) [Example 163, 6,6-dimethyl-3-((7-(4-methyl-3-((3aS,6aS)-octahydropyrrolo[3,4-b]pyrrole-5-carbonyl)-6-(trifluoromethyl)pyridin-2-yl)thieno[3,2-b]pyridin-2-yl)methyl)-3-azabicyclo[3.1.0]hexane-2,4-dione hydrochloride]

Same assay, conditions: at 1 μM of the test compound; given where IC50 not determined yet; read-out: percent value of inhibition of USP7 activity

Molecule | inhibition at 1 µM [%]
Cc1cc(C(F)(F)F)nc(-c2ccnc3cc(CN4C(=O)C5C(C4=O)C5(C)C)sc23)c1C(=O)N1C[C@@H](F)[C@@H](N)C1 (stereo partly drawn) [Example 171, 3-((7-(3-((3S,4R)-3-amino-4-fluoropyrrolidine-1-carbonyl)-4-methyl-6-(trifluoromethyl)pyridin-2-yl)thieno[3,2-b]pyridin-2-yl)methyl)-6,6-dimethyl-3-azabicyclo[3.1.0]hexane-2,4-dione hydrochloride] | 50 to 70
Cc1cc(C#N)nc(-c2ccnc3cc(CN4C(=O)C5C(C4=O)C5(C)C)sc23)c1C(=O)N1CC(N(C)C)C1 (stereo not drawn) [Example 43, 6-(2-((6,6-dimethyl-2,4-dioxo-3-azabicyclo[3.1.0]hexan-3-yl)methyl)thieno[3,2-b]pyridin-7-yl)-5-(3-(dimethylamino)azetidine-1-carbonyl)-4-methylpicolinonitrile] | 50 to 70
Cc1c(N(C)C)cc(-c2ccnc3cc(CN4C(=O)C5C(C4=O)C5(C)C)sc23)n1C[C@@H]1CNCCO1 (stereo partly drawn) [Example 177, 3-((7-(4-(dimethylamino)-5-methyl-1-(((S)-morpholin-2-yl)methyl)-1H-pyrrol-2-yl)thieno[3,2-b]pyridin-2-yl)methyl)-6,6-dimethyl-3-azabicyclo[3.1.0]hexane-2,4-dione hydrochloride] | < 20
Cc1ccnc(-c2ccnc3cc(CN4C(=O)C5C(C4=O)C5(C)C)sc23)c1CN1CCNCC1 (stereo not drawn) [Example 46, 6,6-dimethyl-3-((7-(4-methyl-3-(piperazin-1-ylmethyl)pyridin-2-yl)thieno[3,2-b]pyridin-2-yl)methyl)-3-azabicyclo[3.1.0]hexane-2,4-dione hydrochloride] | < 20
Cc1cc(C(F)(F)F)nc(-c2ccnc3cc(CN4C(=O)C5C(C4=O)C5(C)C)sc23)c1Cn1cncn1 (stereo not drawn) [Example 36, 3-((7-(3-((1H-1,2,4-triazol-1-yl)methyl)-4-methyl-6-(trifluoromethyl)pyridin-2-yl)thieno[3,2-b]pyridin-2-yl)methyl)-6,6-dimethyl-3-azabicyclo[3.1.0]hexane-2,4-dione hydrochloride] | < 20

Other lines, results leading:

inhibition at 1 µM [%] | Molecule
< 20 | Cc1cc(Cl)cc(-c2ccnc3c2nc(C)n3C)c1O[C@H]1CCCNC1 [Example 68, (S)-7-(5-chloro-3-methyl-2-(piperidin-3-yloxy)phenyl)-2,3-dimethyl-3H-imidazo[4,5-b]pyridine hydrochloride]
< 20 | Cc1cc(Cl)cc(-c2ccnc3nc(CN4C(=O)C5C(C4=O)C5(C)C)sc23)c1O[C@H]1CCCNC1 (stereo partly drawn) [Example 151, 3-((7-(5-chloro-3-methyl-2-(((S)-piperidin-3-yl)oxy)phenyl)thiazolo[4,5-b]pyridin-2-yl)methyl)-6,6-dimethyl-3-azabicyclo[3.1.0]hexane-2,4-dione dihydrochloride]
50 to 70 | Cc1cc(C(F)(F)F)nc(-c2ccnc3cc(CN4C(=O)C5C(C4=O)C5(C)C)sc23)c1C(=O)N1CC[C@H](C(C)N)C1 (stereo partly drawn) [Example 138, 3-((7-(3-((3S)-3-(1-aminoethyl)pyrrolidine-1-carbonyl)-4-methyl-6-(trifluoromethyl)pyridin-2-yl)thieno[3,2-b]pyridin-2-yl)methyl)-6,6-dimethyl-3-azabicyclo[3.1.0]hexane-2,4-dione trihydrochloride]
